Drawing on patent US8586591B2, “Aminopyrazine derivative and medicine” (Nippon Shinyaku Co., Ltd., priority 2009, dated 2013), this text covers IC50 for 21 compounds.

One experiment has as its target T1, JAK2 tyrosine kinase (Homo sapiens, UniProt O60674).
T1 construct: purchased Carnabioscience Co
Kind of experiment: Test 1: inhibitory activity to JAK2 tyrosine kinase (ELISA). Conditions: 25 μM ATP in substrate solution, 30° C. for 1 hour, n=2. It is filed as biochemical. In short, it runs like this: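 Human JAK2 (diluted to 0.75 nM before addition) phosphorylated a biotinylated peptide on streptavidin plates for 1 h at 30 °C. The substrate mix held 625 nM peptide, 25 μM ATP and 25 mM MgCl2 in 15 mM Tris pH 7.5, 0.01% Tween-20 and 1 mM DTT. Phosphotyrosine was detected by HRP antibody/TMB at 450 nm, and IC50 was obtained by non-linear regression; duplicates were run.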
A general note: In an ELISA, binding on a coated surface is turned into a signal by an enzyme label.

In the next experiment the target is T2, JAK3 tyrosine kinase (Homo sapiens, UniProt P52333).
T2 construct: purchased Carnabioscience Co
T2 sequence (P52333 1-1124): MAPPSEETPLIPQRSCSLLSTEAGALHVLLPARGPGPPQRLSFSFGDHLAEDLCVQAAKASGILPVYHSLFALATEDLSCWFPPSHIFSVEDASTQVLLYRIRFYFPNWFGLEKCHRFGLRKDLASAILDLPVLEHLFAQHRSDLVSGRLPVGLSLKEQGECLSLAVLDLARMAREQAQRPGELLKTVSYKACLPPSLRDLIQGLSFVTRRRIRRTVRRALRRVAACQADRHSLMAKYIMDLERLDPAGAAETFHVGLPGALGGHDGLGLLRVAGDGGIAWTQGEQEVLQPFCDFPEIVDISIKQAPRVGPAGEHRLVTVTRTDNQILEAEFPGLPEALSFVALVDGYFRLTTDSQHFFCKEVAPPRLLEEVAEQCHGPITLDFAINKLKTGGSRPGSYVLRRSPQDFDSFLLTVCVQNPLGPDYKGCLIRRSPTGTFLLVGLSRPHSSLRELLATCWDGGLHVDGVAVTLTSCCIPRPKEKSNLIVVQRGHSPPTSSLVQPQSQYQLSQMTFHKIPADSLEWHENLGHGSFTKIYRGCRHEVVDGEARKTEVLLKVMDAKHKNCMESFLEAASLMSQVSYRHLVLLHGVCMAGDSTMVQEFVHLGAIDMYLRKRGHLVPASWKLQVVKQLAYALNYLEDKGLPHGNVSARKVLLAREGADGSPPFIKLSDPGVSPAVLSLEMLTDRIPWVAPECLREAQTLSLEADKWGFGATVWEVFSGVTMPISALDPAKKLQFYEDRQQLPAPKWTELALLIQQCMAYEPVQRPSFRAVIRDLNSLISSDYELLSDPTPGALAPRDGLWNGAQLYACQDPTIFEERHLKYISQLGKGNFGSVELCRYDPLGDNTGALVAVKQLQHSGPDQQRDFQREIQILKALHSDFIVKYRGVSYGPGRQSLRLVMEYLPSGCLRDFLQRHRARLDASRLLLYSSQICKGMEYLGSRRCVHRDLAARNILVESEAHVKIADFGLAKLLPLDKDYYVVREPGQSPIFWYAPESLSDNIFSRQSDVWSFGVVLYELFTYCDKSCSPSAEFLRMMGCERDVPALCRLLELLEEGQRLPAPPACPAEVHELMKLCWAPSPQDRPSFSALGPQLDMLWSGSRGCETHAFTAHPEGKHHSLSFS
Kind of experiment: Test 1: inhibitory activity to JAK3 tyrosine kinase (ELISA). In kind it is biochemical. Conditions: 25 μM ATP in substrate solution, 30° C. for 1 hour, n=2. The essentials: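 ELISA of JAK3 kinase activity with absorbance read at 450 nm. Compounds were tested from DMSO dilution series at 100-fold the measurement concentrations (1000–0.01 μM), diluted up to 20 times in assay buffer, against a DMSO negative control. IC50 was estimated by non-linear regression of absorbance.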

Structures can show the parent of a compound that is named as a salt.

What is called IC50 is the concentration that gives 50% inhibition. Low values mean greater potency in that assay, high ones weaker potency in that assay.

T1 sequence (O60674 whole entry): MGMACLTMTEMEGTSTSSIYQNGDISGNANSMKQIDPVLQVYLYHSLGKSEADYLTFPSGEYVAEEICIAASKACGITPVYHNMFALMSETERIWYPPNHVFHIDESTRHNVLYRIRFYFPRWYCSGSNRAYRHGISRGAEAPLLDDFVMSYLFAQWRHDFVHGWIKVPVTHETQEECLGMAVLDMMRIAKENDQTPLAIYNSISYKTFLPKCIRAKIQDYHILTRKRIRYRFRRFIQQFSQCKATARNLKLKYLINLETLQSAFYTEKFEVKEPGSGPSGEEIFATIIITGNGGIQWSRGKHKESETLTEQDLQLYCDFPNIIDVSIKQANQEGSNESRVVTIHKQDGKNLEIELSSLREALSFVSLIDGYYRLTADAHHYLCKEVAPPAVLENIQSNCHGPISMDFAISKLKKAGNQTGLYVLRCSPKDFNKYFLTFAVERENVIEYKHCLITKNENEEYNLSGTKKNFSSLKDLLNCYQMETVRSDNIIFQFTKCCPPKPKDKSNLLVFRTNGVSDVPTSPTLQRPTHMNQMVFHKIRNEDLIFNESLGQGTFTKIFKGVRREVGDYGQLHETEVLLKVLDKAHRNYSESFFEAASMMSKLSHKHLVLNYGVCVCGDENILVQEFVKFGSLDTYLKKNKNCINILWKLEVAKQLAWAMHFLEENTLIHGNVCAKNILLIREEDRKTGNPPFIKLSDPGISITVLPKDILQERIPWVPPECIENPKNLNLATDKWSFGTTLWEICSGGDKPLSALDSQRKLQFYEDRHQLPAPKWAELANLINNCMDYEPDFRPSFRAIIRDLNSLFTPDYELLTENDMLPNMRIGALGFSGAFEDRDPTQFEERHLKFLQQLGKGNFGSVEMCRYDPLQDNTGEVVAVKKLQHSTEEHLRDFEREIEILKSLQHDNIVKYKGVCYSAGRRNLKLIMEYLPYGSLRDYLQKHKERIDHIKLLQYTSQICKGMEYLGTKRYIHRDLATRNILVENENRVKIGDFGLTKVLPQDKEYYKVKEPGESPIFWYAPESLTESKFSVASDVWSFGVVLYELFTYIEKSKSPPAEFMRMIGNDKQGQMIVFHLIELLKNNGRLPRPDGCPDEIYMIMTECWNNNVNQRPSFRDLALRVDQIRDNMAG

For the compound `C[C@H](Nc1nc(Nc2cnccn2)cc(N2CC(C(=O)N3CCOCC3)C2)n1)c1ccc(F)cc1` [Example 196, (S)-(1-{2-[1-(4-Fluorophenyl)ethylamino]-6-(pyrazin-2-ylamino)pyrimidin-4-yl}azetidin-3-yl) (morpholino) methanone], the IC50 against JAK2 tyrosine kinase worked out at 0.00064 µM; against JAK3 tyrosine kinase, 0.035 µM.
Take `C[C@H](Nc1nc(Nc2cnccn2)cc(N2CC(C(=O)NC3CC3)C2)n1)c1ccc(F)cc1` [Example 197, (S)—N-(Cyclopropyl)-1-{2-[1-(4-fluorophenyl)ethylamino]-6-(pyrazin-2-ylamino)pyrimidin-4-yl}azetidine-3-carboxamide]: the figures for the IC50 against JAK2 tyrosine kinase and at JAK3 tyrosine kinase were 0.0016 µM and 0.058 µM, respectively.
The corresponding values for `C[C@H](Nc1nc(Nc2cnccn2)cc(N2CC(C(=O)NCC3CC3)C2)n1)c1ccc(F)cc1` [Example 198, (S)—N-(Cyclopropylmethyl)-1-{2-[1-(4-fluorophenyl)ethylamino]-6-(pyrazin-2-ylamino)pyrimidin-4-yl}azetidine-3-carboxamide] are 0.0016 µM and 0.06 µM.
The matching figures for `C[C@H](Nc1nc(Nc2cnccn2)cc(N2CC(C(=O)NCCO)C2)n1)c1ccc(F)cc1` [Example 199, (S)-1-{2-[1-(4-Fluorophenyl)ethylamino]-6-(pyrazin-2-ylamino)pyrimidin-4-yl}-N-(2-hydroxyethyl)azetidine-3-carboxamide]: 0.0016 µM and 0.064 µM.
The matching figures for `C[C@H](Nc1cc(N2CC(O)C2)cc(Nc2cnccn2)n1)c1ccc(F)cc1` [Example 202, (S)-1-{2-[1-(4-Fluorophenyl)ethylamino]-6-(pyrazin-2-ylamino)pyridin-4-yl}azetidin-3-ol hydrochloride]: 0.0047 µM and 0.47 µM.
With `C[C@H](Nc1cc(N2CC(O)(C3CC3)C2)cc(Nc2cnccn2)n1)c1ccc(F)cc1` [Example 203, (S)-3-Cyclopropyl-1-{2-[1-(4-fluorophenyl)ethylamino]-6-(pyrazin-2-ylamino)pyridin-4-yl}azetidin-3-ol hydrochloride], the results for the half-maximal inhibitory concentration (IC50) against JAK2 tyrosine kinase and against JAK3 tyrosine kinase were 0.0045 µM and 0.12 µM, respectively.
For `CC(C)C1(O)CN(c2cc(Nc3cnccn3)nc(N[C@@H](C)c3ccc(F)cc3)c2)C1` [Example 204, (S)-1-{2-[1-(4-Fluorophenyl)ethylamino]-6-(pyrazin-2-ylamino)pyridin-4-yl}-3-isopropylazetidin-3-ol hydrochloride], the half-inhibitory concentration (IC50) on JAK2 tyrosine kinase was determined as 0.0081 µM; at JAK3 tyrosine kinase it was 0.22 µM.
The corresponding values for `C[C@H](Nc1cc(N2CC(C)(O)C2)cc(Nc2cnccn2)n1)c1ccc(F)cc1` [Example 205, (S)-1-{2-[1-(4-Fluorophenyl)ethylamino]-6-(pyrazin-2-ylamino)pyridin-4-yl}-3-methylazetidin-3-ol hydrochloride] are 0.0028 µM and 0.17 µM.
For the compound `C[C@H](Nc1cc(N2CC(O)(C(F)(F)F)C2)cc(Nc2cnccn2)n1)c1ccc(F)cc1` [Example 206, (S)-1-{2-[1-(4-Fluorophenyl)ethylamino]-6-(pyrazin-2-ylamino)pyridin-4-yl}-3-(trifluoromethyl)azetidin-3-ol hydrochloride], the values for the concentration for half-maximal inhibition (IC50) against JAK2 tyrosine kinase and against JAK3 tyrosine kinase were 0.01 µM and 0.36 µM, respectively.
The corresponding values for `C[C@H](Nc1cc(N2CC(F)(F)C2)cc(Nc2cnccn2)n1)c1ccc(F)cc1` [Example 207, (S)-4-(3,3-Difluoroazetidin-1-yl)-N^2-[1-(4-fluorophenyl)ethyl]-N^6-(pyrazin-2-yl)pyridine-2,6-diamine hydrochloride] are 0.007 µM and 0.3 µM.
The corresponding values for `CC(=O)Nc1cc(Nc2cnccn2)nc(N[C@@H](C)c2ccc(F)cc2)c1` [Example 208, (S)—N-{2-[1-(4-Fluorophenyl)ethylamino]-6-(pyrazin-2-ylamino)pyridin-4-yl}acetamide] are 0.0014 µM and 0.1 µM.
The corresponding values for `C[C@H](Nc1cc(NS(C)(=O)=O)cc(Nc2cnccn2)n1)c1ccc(F)cc1` [Example 209, (S)—N-{2-[1-(4-Fluorophenyl)ethylamino]-6-(pyrazin-2-ylamino)pyridin-4-yl}methanesulfonamide hydrochloride] are 0.0071 µM and 0.44 µM.
`C[C@H](Nc1cc(NC(N)=O)cc(Nc2cnccn2)n1)c1ccc(F)cc1` [Example 210, (S)-1-[2-[1-(4-Fluorophenyl)ethylamino]-6-(pyrazin-2-ylamino)pyridin-4-yl]urea]: the IC50 against JAK2 tyrosine kinase was 0.0032 µM; against JAK3 tyrosine kinase, 0.18 µM.
The corresponding values for `COC1(C2CC2)CN(c2cc(Nc3cnccn3)nc(N[C@@H](C)c3ccc(F)cc3)c2)C1` [Example 211, (S)-4-(3-Cyclopropyl-3-methoxyazetidin-1-yl)-N^2-[1-(4-fluorophenyl)ethyl]-N^6-(pyrazin-2-yl)pyridine-2,6-diamine hydrochloride] are 0.0056 µM and 0.086 µM.
The matching figures for `COC1(C(C)C)CN(c2cc(Nc3cnccn3)nc(N[C@@H](C)c3ccc(F)cc3)c2)C1` [Example 212, (S)—N^2-[1-(4-Fluorophenyl)ethyl]-4-(3-isopropyl-3-methoxyazetidin-1-yl)-N^6-(pyrazin-2-yl)pyridine-2,6-diamine hydrochloride]: 0.015 µM and 0.16 µM.
For the compound `COC1(C)CN(c2cc(Nc3cnccn3)nc(N[C@@H](C)c3ccc(F)cc3)c2)C1` [Example 213, (S)—N^2-[1-(4-Fluorophenyl)ethyl]-4-(3-methoxy-3-methylazetidin-1-yl)-N^6-(pyrazin-2-yl)pyridine-2,6-diamine hydrochloride], the half-maximal inhibitory concentration (IC50) against JAK2 tyrosine kinase is 0.0032 µM; at JAK3 tyrosine kinase, 0.13 µM.
Take `Cc1cnc(Nc2cc(-c3cnn(C)c3)cc(N[C@@H](C)c3ccc(F)cc3)n2)cn1` [Example 214, (S)—N^2-[1-(4-Fluorophenyl)ethyl]-4-(1-methyl-1H-pyrazol-4-yl)-N^6-(5-methylpyrazin-2-yl)pyridine-2,6-diamine]: the results for the IC50 on JAK2 tyrosine kinase and at JAK3 tyrosine kinase were 0.0055 µM and 0.38 µM, respectively.
For `C[C@H](Nc1cc(C2CCN(S(C)(=O)=O)CC2)cc(Nc2cnccn2)n1)c1ccc(F)cc1` [Example 215, (S)—N^2-[1-(4-Fluorophenyl)ethyl]-4-[1-(methanesulfonyl)piperidin-4-yl]-N^6-(pyrazin-2-yl)pyridine-2,6-diamine], the IC50 against JAK2 tyrosine kinase was found to be 0.0023 µM; against JAK3 tyrosine kinase, 0.21 µM.
The corresponding values for `CCC(=O)Nc1cc(Nc2cnccn2)nc(N[C@@H](C)c2ccc(F)cc2)c1` [Example 216, (S)—N-{2-[1-(4-Fluorophenyl)ethylamino]-6-(pyrazin-2-ylamino)pyridin-4-yl}propionamide] are 0.0014 µM and 0.049 µM.
The matching figures for `COCCn1cc(-c2cc(Nc3cnccn3)nc(N[C@@H](C)c3ccc(F)cc3)c2)cn1` [Example 217, (S)—N^2-[1-(4-Fluorophenyl)ethyl]-4-[1-(2-methoxyethyl)-1H-pyrazol-4-yl]-N^6-(pyrazin-2-yl)pyridine-2,6-diamine]: 0.0015 µM and 0.036 µM.
In the case of `C[C@H](Nc1cc(-c2cnn(C3CC3)c2)cc(Nc2cnccn2)n1)c1ccc(F)cc1` [Example 218, (S)-4-(1-Cyclopropyl-1H-pyrazol-4-yl)-N^2-[1-(4-fluorophenyl)ethyl]-N^6-(pyrazin-2-yl)pyridine-2,6-diamine], the IC50 at JAK2 tyrosine kinase amounted to 0.0022 µM; against JAK3 tyrosine kinase, 0.085 µM.
